ChEMBL document CHEMBL1201862, “PubChem BioAssay data set” (2004)
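Values below derive from 48-hour exposures of cells grown in 96-well plates, with endpoints linearly interpolated between the two concentrations bracketing the appropriate inhibition level. GI50 is the concentration that inhibits growth by half.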 The source made the active and inactive calls. Rule as the data show it: active = GI50 up to about 1.1 µM and inactive = higher.

Assays:
Experiment in all cases: DTP human tumour cell line panel, 48 h
NCI/ADR-RES = tested on: NCI/ADR-RES
IGROV-1 = tested on: IGROV-1
Malme-3M = tested on: Malme-3M
HCT-116 = tested on: HCT-116
RXF 393 = tested on: RXF 393
HCT-15 = tested on: HCT-15
SF-295 = tested on: SF-295
Hs-578T = tested on: Hs-578T
HL-60 = tested on: HL-60
MDA-MB-435 = tested on: MDA-MB-435
RPMI-8226 = tested on: RPMI-8226
MOLT-4 = tested on: MOLT-4
A498 = tested on: A498
OVCAR-5 = tested on: OVCAR-5
SW-620 = tested on: SW-620
OVCAR-3 = tested on: OVCAR-3
SK-MEL-2 = tested on: SK-MEL-2
T47D = tested on: T47D
HOP-62 = tested on: HOP-62

Compound | GI50 (NCI/ADR-RES) | GI50 (IGROV-1) | GI50 (Malme-3M) | GI50 (HCT-116) | GI50 (RXF 393) | GI50 (HCT-15) [µM] | GI50 (SF-295) | GI50 (Hs-578T) | GI50 (HL-60) | GI50 (MDA-MB-435) | GI50 (RPMI-8226) | GI50 (MOLT-4) | GI50 (A498) | GI50 (OVCAR-5) | GI50 (SW-620) | GI50 (OVCAR-3) | GI50 (SK-MEL-2) | GI50 (T47D) | GI50 (HOP-62)
O=C1c2c(ccc3c2CCC3)CC12Cc1cc3c(cc1C2)CCC3 | > 100 µM (inactive) | > 100 µM (inactive) | 20.1 µM (inactive) | > 100 µM (inactive) | > 100 µM (inactive) | > 100 | > 100 µM (inactive) | > 100 µM (inactive) | > 100 µM (inactive) | > 100 µM (inactive) | > 100 µM (inactive) | > 100 µM (inactive) | > 100 µM (inactive) | > 100 µM (inactive) | > 100 µM (inactive) | > 100 µM (inactive) | > 100 µM (inactive) | > 100 µM (inactive) | > 100 µM (inactive)
O=S1(=O)c2ccccc2N2C(c3ccccc3)=NOC2(c2ccccc2)CC1c1ccc(Br)cc1 (stereo not given) | > 100 µM (inactive) | > 100 µM (inactive) | > 100 µM (inactive) | > 100 µM (inactive) | > 100 µM (inactive) | > 100 | > 100 µM (inactive) | > 100 µM (inactive) | > 100 µM (inactive) | > 100 µM (inactive) |  | > 100 µM (inactive) | > 100 µM (inactive) | > 100 µM (inactive) | > 100 µM (inactive) | > 100 µM (inactive) | > 100 µM (inactive) | > 100 µM (inactive) | > 100 µM (inactive)
Cc1nc(N)nc(N)c1N1CCN(Cc2ccccc2)CC1 | 12.8 µM (inactive) | 19.9 µM (inactive) | 14.2 µM (inactive) | 4.71 µM (inactive) | 13.4 µM (inactive) | 9.42 | 7.06 µM (inactive) | 48 µM (inactive) | 25.1 µM (inactive) | 11.4 µM (inactive) | > 39 µM (inactive) | 29.7 µM (inactive) | 42.5 µM (inactive) | > 37.8 µM (inactive) | 38.9 µM (inactive) | 47.8 µM (inactive) | 64.6 µM (inactive) | > 100 µM (inactive) | 42.4 µM (inactive)
CSc1[nH]nc(N)c1C(=O)Nc1ccccc1 | > 100 µM (inactive) | > 100 µM (inactive) | > 100 µM (inactive) | > 100 µM (inactive) | > 100 µM (inactive) | > 100 |  | > 100 µM (inactive) | > 100 µM (inactive) | > 100 µM (inactive) | > 100 µM (inactive) | > 100 µM (inactive) | > 100 µM (inactive) | > 100 µM (inactive) | > 100 µM (inactive) | > 100 µM (inactive) | > 100 µM (inactive) | > 100 µM (inactive) | 
Cc1c(-c2nc(N)c(C#N)c(N)c2C#N)c(=O)oc2ccccc12 | > 100 µM (inactive) | 9.46 µM (inactive) | > 100 µM (inactive) | 78.2 µM (inactive) | > 100 µM (inactive) | 80.7 | 70 µM (inactive) | > 100 µM (inactive) | 63.5 µM (inactive) | > 10 µM (inactive) | 23.6 µM (inactive) |  | > 100 µM (inactive) | > 100 µM (inactive) | 68.5 µM (inactive) | > 100 µM (inactive) | > 100 µM (inactive) | 89.5 µM (inactive) | 67.3 µM (inactive)
Cc1n[nH]c(=O)c2c3c([nH]c12)-c1ccccc1C3 | > 100 µM (inactive) | 0.0716 µM (active) | > 100 µM (inactive) | > 100 µM (inactive) | 77.3 µM (inactive) | > 100 | > 100 µM (inactive) | > 100 µM (inactive) |  | > 100 µM (inactive) | > 100 µM (inactive) | 39.9 µM (inactive) | > 100 µM (inactive) | > 100 µM (inactive) | > 100 µM (inactive) | > 100 µM (inactive) | > 100 µM (inactive) | 23.5 µM (inactive) | > 100 µM (inactive)
COc1ccc(/C=C/C(=O)N[C@@H]2C(=O)N3[C@@H]2SC(C)(C)[C@@H]3C(=O)O)cc1 | > 100 µM (inactive) |  |  | > 100 µM (inactive) | > 100 µM (inactive) | > 100 | > 100 µM (inactive) | > 100 µM (inactive) | > 100 µM (inactive) | > 100 µM (inactive) | > 100 µM (inactive) | > 100 µM (inactive) | > 100 µM (inactive) | > 100 µM (inactive) | > 100 µM (inactive) | > 100 µM (inactive) | > 100 µM (inactive) | > 100 µM (inactive) | > 100 µM (inactive)
OC1C2CCCCN2C[C@@H](O)[C@H]1O (stereo not given in full) | > 100 µM (inactive) | > 100 µM (inactive) | > 100 µM (inactive) | > 100 µM (inactive) | > 100 µM (inactive) | > 100 | > 100 µM (inactive) | > 100 µM (inactive) | > 100 µM (inactive) | > 100 µM (inactive) | > 100 µM (inactive) | > 100 µM (inactive) | > 100 µM (inactive) | > 100 µM (inactive) | > 100 µM (inactive) | > 100 µM (inactive) | > 100 µM (inactive) | > 100 µM (inactive) | > 100 µM (inactive)
